The numbers were not newly measured in patent US6881426B2, “Echinacea angustifolia extracts” (priority 2002, dated 2005), which cites them from elsewhere.

The test system of this data set is hyaluronidase.

Take echinacoside: the hyaluronidase inhibition result is listed as “inhibition”.
